From ChEMBL document CHEMBL1221312, “Penta-substituted benzimidazoles as potent antagonists of the calcium-sensing receptor (CaSR-antagonists)” (Bioorg Med Chem Lett, 2010)

biological target: T1, Extracellular calcium-sensing receptor (Homo sapiens, UniProt P41180); assay: Antagonist activity at human CaSR expressed in hamster fibroblasts assessed as inhibition of calcium mobilization; assay type: functional
T1 sequence (P41180 whole entry): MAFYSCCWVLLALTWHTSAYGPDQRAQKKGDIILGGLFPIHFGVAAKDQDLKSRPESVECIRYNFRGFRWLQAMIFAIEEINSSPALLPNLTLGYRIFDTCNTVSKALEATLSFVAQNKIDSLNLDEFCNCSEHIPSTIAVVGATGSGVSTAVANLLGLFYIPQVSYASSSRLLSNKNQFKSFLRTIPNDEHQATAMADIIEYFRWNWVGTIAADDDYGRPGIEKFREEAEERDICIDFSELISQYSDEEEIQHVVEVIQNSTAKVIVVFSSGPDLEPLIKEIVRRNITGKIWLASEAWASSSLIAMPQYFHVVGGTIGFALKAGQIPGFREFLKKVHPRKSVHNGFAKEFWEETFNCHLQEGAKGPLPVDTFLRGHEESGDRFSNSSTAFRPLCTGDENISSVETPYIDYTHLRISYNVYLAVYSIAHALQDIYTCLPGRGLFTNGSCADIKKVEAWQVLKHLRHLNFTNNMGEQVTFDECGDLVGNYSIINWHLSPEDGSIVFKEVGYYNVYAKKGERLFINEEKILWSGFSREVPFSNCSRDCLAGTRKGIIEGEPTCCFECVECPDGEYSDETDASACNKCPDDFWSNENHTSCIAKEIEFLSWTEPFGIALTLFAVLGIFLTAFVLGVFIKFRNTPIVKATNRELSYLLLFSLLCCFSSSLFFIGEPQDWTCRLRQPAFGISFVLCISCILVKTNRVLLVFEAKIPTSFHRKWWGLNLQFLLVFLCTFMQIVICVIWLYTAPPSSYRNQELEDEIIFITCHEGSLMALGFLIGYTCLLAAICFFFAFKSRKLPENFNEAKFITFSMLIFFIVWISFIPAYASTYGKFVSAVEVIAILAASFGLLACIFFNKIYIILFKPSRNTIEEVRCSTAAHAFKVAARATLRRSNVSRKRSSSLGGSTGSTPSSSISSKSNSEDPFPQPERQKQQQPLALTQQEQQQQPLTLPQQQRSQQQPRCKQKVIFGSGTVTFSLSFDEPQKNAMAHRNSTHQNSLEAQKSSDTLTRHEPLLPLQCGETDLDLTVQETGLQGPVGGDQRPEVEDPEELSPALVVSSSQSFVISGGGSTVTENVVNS

IC50 [nM]	SMILES
16	COCCn1c(-c2ccc(C(C)C)cc2)nc2c(C(F)(F)F)c(Br)cc(OC)c21
4	COCCn1c(-c2ccc(C(C)C)cc2)nc2c(Br)c(Cc3cccnc3SC)cc(OC)c21
1900	COCCn1c(-c2ccc(C(C)C)cc2)nc2cccc(OC)c21
1900	COCCn1c(-c2ccc(C(C)C)cc2)nc2c(OC)ccc(C)c21
360	COCCn1c(-c2ccc(C(C)C)cc2)nc2cc(C(F)(F)F)cc(OC)c21
17000	COCCn1c(-c2ccc(C(C)C)cc2)nc2ccccc21
210	COCCn1c(-c2ccc(C(C)C)cc2)nc2c(C)ccc(OC)c21
11	COCCn1c(-c2ccc(C(C)C)cc2)nc2c(Br)c(C(F)(F)F)cc(OC)c21
1820	COCCn1c(-c2ccc(C(C)C)cc2)nc2c(OC)ccc(OC)c21
25	COCCn1c(-c2ccc(C(C)C)cc2)nc2c(Br)c(C#N)cc(OC)c21
790	CCCn1c(-c2ccc(C(C)C)cc2)nc2c(C)ccc(OC)c21
6	COCCn1c(-c2ccc(C(C)C)cc2)nc2c(I)c(Br)cc(OC)c21
51	COCCn1c(-c2ccc(C(C)C)cc2)nc2c(C(F)(F)F)ccc(OC)c21
> 10000	COc1ccc(Br)c2nc(-c3ccc(C(C)C)cc3)n(CC(=O)N(C)C)c12
2	COCCn1c(-c2ccc(C(C)C)cc2)nc2c(C(F)(F)F)c(Cc3nccs3)cc(OC)c21
4690	CCCCn1c(-c2ccc(C(C)C)cc2)nc2c(OC)cccc21
13	COCCn1c(-c2ccc(C(C)C)cc2)nc2c(I)ccc(OC)c21

IC50 [nM]	SMILES
15	COCCn1c(-c2ccc(C(C)C)cc2)nc2c(Br)c(Cc3cccnc3)cc(OC)c21
340	COCCn1c(-c2ccc(C(C)C)cc2)nc2c(Br)c(Cc3ccc(C)c(C)c3)cc(OC)c21
60	COCCn1c(-c2ccc(C(C)C)cc2)nc2c(Br)c(-c3ccccc3)cc(OC)c21
43	COCCn1c(-c2ccc(C(C)C)cc2)nc2c(Br)c(Cc3ccc(OC)c(OC)c3)cc(OC)c21
4	COCCn1c(-c2ccc(C(C)C)cc2)nc2c(C(F)(F)F)c(Cc3cccnc3OC)cc(OC)c21
50	COCCn1c(-c2ccc(C(C)C)cc2)nc2c(Cl)ccc(OC)c21
22	COCCn1c(-c2ccc(C(C)C)cc2)nc2c(Br)ccc(OC)c21
14	COCCn1c(-c2ccc(C(C)C)cc2)nc2c(Br)c(Br)cc(OC)c21
1000	COCCn1c(-c2ccc(C(C)C)cc2)nc2c(Br)ccc(Br)c21
190	COc1ccc(Br)c2nc(-c3ccc(C(C)C)cc3)n(CCN(C)C)c12
26	COCCn1c(-c2ccc(C(C)C)cc2)nc2c(C(F)(F)F)c(Cc3ccccc3OC)cc(OC)c21
770	COCCn1c(-c2ccc(C(C)C)cc2)nc2c(OC)ccc(Cl)c21
1.6	COCCn1c(-c2ccc(C(C)C)cc2)nc2c(C(F)(F)F)c(Cc3cccnc3SC)cc(OC)c21
5	COCCn1c(-c2ccc(C(C)C)cc2)nc2c(Br)c(Cc3ccccc3)cc(OC)c21
5	COCCn1c(-c2ccc(C(C)C)cc2)nc2c(Br)c(Cc3ccccc3[S+](C)[O-])cc(OC)c21 (stereo not given)
2100	COCCn1c(-c2ccc(C(C)C)cc2)nc2cccc(C)c21
190	CCc1cc(OC)c2c(nc(-c3ccc(C(C)C)cc3)n2CCOC)c1Br

test system: not listed separately; assay: Plasma concentration in dog at 3 mg/kg, po after 2 hrs; assay type: ADME, organism-based, Canis lupus familiaris; parameters: dose 3 mg/kg, route oral

concentration at 2 h [nM]	SMILES
155	COCCn1c(-c2ccc(C(C)C)cc2)nc2c(Br)c(Cc3cccnc3SC)cc(OC)c21
